In patent US7848888B2, “Method for identification of biologically active agents” (Vitruvean LLC, priority 2002, dated 2010):

What was measured:
wild-type flies = assay: Motion tracking with wild-type flies; assay type: in vivo, Drosophila; settings: flies fed 0.1M or 0.05M, compared to controls; FIG. 19
Description: In the present exemplary application, to capture a movie of the movement of flies within specimen container 104, robot 114 grabs a specimen container 104 and positions it in front of camera 124. However, before positioning specimen container 104 in front of camera 124, robot 114 first raises specimen container 104 above a distance, such as about 2 centimeters, above base plate 106, then releases specimen container 104, which forces the flies within specimen container 104 to fall down to the bottom of specimen container 104. Robot 114 then grabs specimen container 104 again and positions it to be filmed by camera 124. In one exemplary embodiment, camera 124 captures about 40 consecutive frames at a frame rate of about 10 frames per second. It should be noted, however, that the number of frames captured and the frame rate used can vary. Additionally, the step of dropping specimen container 104 prior to filming can be omitted.
“Movement trait data” as used herein refers to the measurements made of one or more movement traits. Examples of “movement trait data” measurements include, but are not limited to X-pos, X-speed, speed, turning, stumbling, size, T-count, P-count, T-length, Cross150, Cross250, and F-count. Descriptions of these particular measurements are provided below. • X-Pos: The X-Pos score is calculated by concatenating the lists of x-positions for all trajectories and then computing the average of all values in the concatenated list. • X-Speed: The X-Speed score is calculated by first computing the lengths of the x-components of the speed vectors by taking the absolute difference in x-positions for subsequent frames. The resulting lists of x-speeds for all trajectories are then concatenated and the average x-speed for the concatenated list is computed. • Speed: The Speed score is calculated in the same way as the X-Speed score, but instead of only using the length of the x-component of the speed vector, the length of the whole vector is used. […]

flies = settings: administered orally to flies; cited from earlier work
[1] = system: Drosophila expressing a mutant form of human Huntington (HD); assay: Motion tracking with Drosophila model of Huntington disease; assay type: in vivo; settings: HD model with drug vs HD model without drug
Experimental: “Movement trait data” as used herein refers to the measurements made of one or more movement traits. Examples of “movement trait data” measurements include, but are not limited to X-pos, X-speed, speed, turning, stumbling, size, T-count, P-count, T-length, Cross150, Cross250, and F-count. Descriptions of these particular measurements are provided below. • X-Pos: The X-Pos score is calculated by concatenating the lists of x-positions for all trajectories and then computing the average of all values in the concatenated list. • X-Speed: The X-Speed score is calculated by first computing the lengths of the x-components of the speed vectors by taking the absolute difference in x-positions for subsequent frames. The resulting lists of x-speeds for all trajectories are then concatenated and the average x-speed for the concatenated list is computed. • Speed: The Speed score is calculated in the same way as the X-Speed score, but instead of only using the length of the x-component of the speed vector, the length of the whole vector is used. That is, [length]=square root of ([x-length]^2+[y-length]^2). • Turning: The Turning score is calculated in the same way as the Speed score, but instead of using the length of the speed vector, the absolute angle between the current speed vector and the previous one is used, giving a value between 0 and 90 degrees. • Stumbling: The Stumbling score is calculated in the same way as the Speed score, but instead of using the length of the speed vector, the absolute angle between the current speed vector and the direction of body orientation is used, giving a value between 0 and 90 degrees. • Size: The Size score is calculated in the same way as the Speed score, but instead of using the length of the speed vector, the size of the detected fly is used. • T-Count: The T-Count score is the number of trajectories detected in the movie. • P-Count: The P-Count score is the total number of points in the movie (i.e., the number of points in each trajectory, summed over all trajectories in the movie). • T-Length: The T-Length score is the sum of the lengths of all speed vectors in the movie, giving the total length all flies in the movie have walked. • Cross150: The Cross150 score is the number of trajectories that either crossed the line at x=150 in the negative x-direction (from bottom to top of the vial) during the movie, or that were already above that line at the start of the movie. […] In other words this score measures the number of detected flies that either managed to hold on to the tube or that managed to climb above the x=150 line within the length of the movie. • Cross250: The Cross250 score is equivalent to the Cross150 score, but uses a line at x=250 instead. • F-Count: The F-Count score counts the number of detected flies in each individual frame, and then takes the maximum of these values over all frames. […]
Drosophila expressing a mutant form of human Huntington (HD) have a functional deficit that is quantifiable, reproducible, and is suitable for automated high-throughput screening. Drosophila (or specimen) movements can be analyzed for various characteristics and/or traits. For example, statistics on the movements of the specimens, such as the x and y travel distance, path length, speed, turning, and stumbling, can be calculated. […]
Differences between the HD model+/−drug (HDAC inhibitor, TSA) and wild type (control)+/−drug (TSA) can clearly be detected using the motion tracking software. […]

[Cl-].[Li+] [LiCl, Lithium Chloride]
incidence of stumbling (wild-type flies): increased incidence
incidence of turning (wild-type flies): increased incidence
speed (wild-type flies): significant reduction

O=C1NC(=O)C(c2ccccc2)(c2ccccc2)N1 [Phenytoin]
seizure and mean recovery times following seizure (flies): reduce

NCC1(CC(=O)O)CCCCC1 [Gabapentin]
seizure and mean recovery times following seizure (flies): reduce

CC1(C)O[C@@H]2[C@@H](CO[C@@]3(COS(N)(=O)=O)OC(C)(C)O[C@@H]23)O1 [Topiramate]
seizure and mean recovery times following seizure (flies): reduce

CC(/C=C/C(=O)NO)=C\[C@@H](C)C(=O)c1ccc(N(C)C)cc1 [TSA]
Speed score ([1]; p-values, FIG. 21B): do not yield significant values
Turning score ([1]; p-values, FIG. 21D): do not yield significant values
Stumbling score ([1]; p-values, FIG. 21F): do not yield significant values
T-Length score ([1]; p-values, FIG. 21H): best highlight the therapeutic effect
motor performance, Cross150 score (climbing ability) ([1]; FIG. 20, 21J): restore climbing ability for HD flies to almost the same level as for wt flies
